Measured values as given in patent US6974830B2, “NR1H4 nuclear receptor binding compounds” (Phenix Pharmaceuticals AG, priority 2001, dated 2005).
Read-outs that look alike come from different tables or passages of the source.

Columns and labels:
full length human FXR = molecular target: T1, full length human FXR (Homo sapiens, UniProt Q96RI1); experiment: transactivation of FXR mediated transcription in a HEK293 reporter cell line (luciferase); assay type: cell-based; details: for Emax: HEK293, read-out: EFFIC AVG (average efficacy, % activity relative to CDCA control agonist), relative to CDCA control agonist; for EC50: HEK293 FXR reporter cell line
T1 construct: expressed in transfected cells
T1 sequence (Q96RI1 1-472 isoform Q96RI1-2): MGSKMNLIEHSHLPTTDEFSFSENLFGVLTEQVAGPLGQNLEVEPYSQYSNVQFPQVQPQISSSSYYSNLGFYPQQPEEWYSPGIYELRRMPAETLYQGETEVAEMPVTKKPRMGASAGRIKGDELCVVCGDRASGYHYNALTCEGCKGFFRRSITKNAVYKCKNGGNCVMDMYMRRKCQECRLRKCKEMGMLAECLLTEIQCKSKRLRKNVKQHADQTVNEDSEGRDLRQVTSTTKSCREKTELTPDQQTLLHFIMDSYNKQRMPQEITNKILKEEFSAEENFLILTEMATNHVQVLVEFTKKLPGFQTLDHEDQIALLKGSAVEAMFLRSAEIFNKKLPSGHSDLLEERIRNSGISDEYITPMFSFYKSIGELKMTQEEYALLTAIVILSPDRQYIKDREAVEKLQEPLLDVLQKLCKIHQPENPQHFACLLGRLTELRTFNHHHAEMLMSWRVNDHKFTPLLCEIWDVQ
T1 sequence (P19793 1-462 partner): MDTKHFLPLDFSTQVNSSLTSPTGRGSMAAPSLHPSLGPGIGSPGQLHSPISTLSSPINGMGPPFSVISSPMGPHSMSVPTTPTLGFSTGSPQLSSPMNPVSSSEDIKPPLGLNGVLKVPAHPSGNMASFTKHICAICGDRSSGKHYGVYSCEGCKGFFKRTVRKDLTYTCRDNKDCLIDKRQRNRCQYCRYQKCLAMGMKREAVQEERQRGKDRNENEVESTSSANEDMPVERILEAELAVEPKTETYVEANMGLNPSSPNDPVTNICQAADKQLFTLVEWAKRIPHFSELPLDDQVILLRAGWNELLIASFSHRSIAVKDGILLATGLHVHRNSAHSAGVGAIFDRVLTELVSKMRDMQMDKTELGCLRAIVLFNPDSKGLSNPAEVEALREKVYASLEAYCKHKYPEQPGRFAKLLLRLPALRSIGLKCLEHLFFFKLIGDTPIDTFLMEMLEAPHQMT
Source text: Tables 3, 4, 5 and 6 illustrate the preferred compounds according to the invention that can mediate transactivation of FXR mediated transcription in a HEK293 reporter cell line.
Stable HEK293FXR reporter cell lines were generated by stably transfecting with the pTRexDest30 (Invitrogen) derivatives pTRexDest30-hFXR, pTRexDest30-hRXR and the pGL2promoter (Promega) derivative pGL2promoter-FXRRE. The full length human FXR (accession U68233) and the full length human RXRα (accession P19793) were cloned into the pTRexDest30 applying the manufacturer protocols for the Gateway™ system (Invitrogen).
The FXR response elements were cloned (upper case and undrelined). 5′-cccaGGGTGAaTAACCTcggggctctgtccctccaatcccaGGGTGAaTAACCTcggg 3′ (SEQ ID NO. 5) was created from the human IBAB-P promoter (Grober et al 1999, JBC 274, pp. 29749-29754). A stable clone was selected and seeded at a density of […] cells per well in 48 well plates. Luciferase reporter activity was measured in duplicates from extracts of cells after incubating cells in culture medium (DMEM [Gibco-BRL]+10% FCS [PAA laboratories]) for 16 hours (5% CO2, 37° C.) containing 0.5% DMSO (control) or 0.5% DMSO with increasing concentrations of TR0800012996.

human FXR alpha (NR1H4) = molecular target: T2, human FXR alpha (NR1H4) (Homo sapiens, UniProt Q96RI1); experiment: FXR binding / FXR-Tif 2 coactivator interaction, LANCE TR-FRET
T2 construct: agonist activity at the NR1H4 human nuclear receptor; fused on or other part: GST at the N-terminus (pDest15) in the TR-FRET test
T2 sequence (Q96RI1 1-486): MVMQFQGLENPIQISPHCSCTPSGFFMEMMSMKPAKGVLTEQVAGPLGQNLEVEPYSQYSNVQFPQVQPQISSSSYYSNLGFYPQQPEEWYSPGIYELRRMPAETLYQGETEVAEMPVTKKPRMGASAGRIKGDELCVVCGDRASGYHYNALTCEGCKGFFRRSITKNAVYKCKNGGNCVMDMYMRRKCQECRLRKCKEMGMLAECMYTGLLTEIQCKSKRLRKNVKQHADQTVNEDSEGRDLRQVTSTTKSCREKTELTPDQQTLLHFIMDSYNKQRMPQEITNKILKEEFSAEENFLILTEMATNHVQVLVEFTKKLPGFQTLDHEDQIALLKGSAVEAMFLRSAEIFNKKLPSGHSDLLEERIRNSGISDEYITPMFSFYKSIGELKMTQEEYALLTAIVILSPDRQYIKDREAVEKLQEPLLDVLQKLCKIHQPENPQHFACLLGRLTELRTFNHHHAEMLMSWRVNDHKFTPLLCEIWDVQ
Experimental: In particular, the invention relates to compounds as described above wherein the compounds are capable of binding the NR1H4 receptor protein or a portion thereof according to SEQ ID NOS 1-4 shown in FIGS. 4A-4D, respectively, or a mammalian homologue thereof. The claimed compound can bind to the NR1H4 receptor protein or a portion thereof in a mixture comprising 10-200 ng of NR1H4 receptor protein or a portion thereof, preferably the ligand binding domain, 20 mM Tris/HCl at pH 7.9; 60 mM KCl; 5 mM MgCl2; 160 ng/μl BSA in a total volume of preferably about 25 μl.
For in vitro screening for compounds which influence FXR binding to coactivators, a fragment of the open reading frame of human FXR alpha (NR1H4-(Acc. No:AF384555)) encoding aminoacids 187-472 was amplified by standard RT PCR procedures (see SEQ ID NOS. 1 and 2 in FIGS. 4A and 4B, respectively). The starting material was total RNA derived from human liver. The resulting cDNA obtained after reverse transcription was subsequently cloned using the Gateway™ recombination technology (Invitrogen, USA) into the expression plasmid pDest15 (Invitrogen, USA). This construct was used to express a recombinant GST-FXR fusion protein in E. coli (BL21 strain). A pDEST 17 derivative clone harboring an additional sequence encoding amino acids 548-878 of human TIF2 (Acc. No: XM—011633 RefSeq) was constructed using Gateway™ recombination technology (Invitrogen, USA) in order to obtain a construct which was used to express recombinant His-tagged TIF2 fragment in E. coli. For E. coli expression of both constructs, plasmid DNA was transformed into chemically competent E. coli BL21 (Invitrogen, USA) and cells were grown to an OD600 of 0.4-0.7 before expression was induced by addition of 0.5 mM IPTG according instructions of the manufacturer (Invitrogen). After induction for 8 hours at 30° C., the cells were harvested by centrifugation for 10 minutes at 5000×g. Fusion proteins were affinity purified using Glutathion sepharose (Pharmacia) or Ni-NTA Agarose (QIAGEN) according to the instructions of the respective manufacturer. Recombinant proteins were dialyzed against 20 mM Tris/HCL pH 7.9; 60 mM KCl; 5 mM MgCl2; 1 mM DTT, 0.2 mM PMSF; 10% glycerol. The TIF2 fragment was subsequently biotinylated by addition of 40-120 μl of a biotinamidocaproate N-hydroxysuccinimide-ester (Sigma) solution (20 mg/ml in DMSO). […]
For screening of the compound libraries as provided for by the methods described in Examples 2, 3 and 4 below for substances which influence the FXR/Tif 2 interaction, Perkin Elmer LANCE technology was used. […] For ease of handling and reduction of background from compound fluorescence, LANCE technology makes use of generic fluorophore labels and time resoved detection. […]

Structure (SMILES)	Emax (full length human FXR; Tables 3-5) [%]	EC50 (full length human FXR; Tables 3-5) [nM]	Emax (full length human FXR; Table 6) [%]	agonist activity at the NR1H4 human nuclear receptor (human FXR alpha (NR1H4))	EC50 (human FXR alpha (NR1H4); read-out: EC50 (effective binding concentration at FXR, half-maximal effective concentration)) [nM]
O=C(O)c1ccc(CNc2nc(-c3ccccc3O)c(Cc3cccc(F)c3F)s2)cc1 [LN0000006323]	86	440			
O=C(O)C1CCC(CNc2nc(-c3ccccc3O)c(Cc3c(F)cccc3F)s2)CC1 (stereo not shown) [LN0000006316]	110	200	309		
COc1ccccc1Cc1sc(NCC2CCC(C(=O)O)CC2)nc1-c1ccccc1O (stereo not shown) [LN0000006328]	116	4500			
COc1ccccc1Cc1sc(NCc2ccc(C(=O)O)cc2)nc1-c1ccccc1O [LN0000006329]	105	730			
O=C(O)c1ccc(CNc2nc(-c3ccccc3O)c(Cc3c(F)cccc3F)s2)cc1 [LN0000006317]	115	1450	223		
O=C(O)C1CCC(CNc2nc(-c3ccccc3O)c(Cc3cccc(F)c3F)s2)CC1 (stereo not shown) [LN0000006322]	115				

Further lines, results first:

Emax (full length human FXR; Tables 3-5) [%]	EC50 (full length human FXR; Tables 3-5) [nM]	Emax (full length human FXR; Table 6) [%]	agonist activity at the NR1H4 human nuclear receptor (human FXR alpha (NR1H4))	EC50 (human FXR alpha (NR1H4); read-out: EC50 (effective binding concentration at FXR, half-maximal effective concentration)) [nM]	Structure (SMILES)
92	360	340			O=C(O)C1CCC(CNc2nc(-c3cccc(O)c3)c(Cc3c(Cl)cccc3Cl)s2)CC1 (stereo not shown) [LN0000006365]
			active as agonist		O=C(O)c1ccc(CNc2nc(-c3ccccc3O)c(Cc3cccc(F)c3F)s2)cc1 [formula (V)]
66	4050				O=C(O)c1ccc(CNc2nc(-c3cccc(O)c3)c(Cc3c(F)cccc3F)s2)cc1 [LN0000006349]
			active as agonist		O=C(O)C1CCC(CNc2nc(-c3cccc(O)c3)c(Cc3c(Cl)cccc3Cl)s2)CC1 (stereo not shown) [formula (IV)]
				200	O=C(O)C1CCC(CNc2nc(-c3ccccc3O)c(Cc3c(F)cccc3F)s2)CC1 (stereo not shown) [formula (III)]
			active as agonist		COc1ccccc1Cc1sc(NCc2ccc(C(=O)O)cc2)nc1-c1ccccc1O [formula (VI)]
63	5120				O=C(O)CCCCCNc1nc(-c2ccccc2O)c(Cc2cccc(F)c2F)s1 [LN0000006346]
66	3100				COc1ccccc1Cc1sc(NCCCCCC(=O)O)nc1-c1ccccc1O [LN0000006347]
109	2390				O=C(O)C1CCC(CNc2nc(-c3cccc(O)c3)c(Cc3c(F)cccc3F)s2)CC1 (stereo not shown) [LN0000006348]
